Values of other authors as cited in patent US20100028912A1, “IMAGING USING RADIOACTIVE MONOCATIONS IN COMBINATION WITH A RECEPTOR BINDING LIGAND THAT STIMULATES THE INFLUX OF CATIONS” (BRACCO IMAGING S.P.A., priority 2006, published 2010).

Columns and labels:
Na+-K+ pump = conditions: guinea pig pancreatic acinar cells in vitro
[1] = system: guinea pig tracheal smooth muscle cells; conditions: cultured guinea pig tracheal smooth muscle cells
[2] = system: quiescent Swiss 3T3 cells; conditions: cells treated with Na+/K+ ATPase pump inhibitor
[3] = system: alpha(1)-adrenoceptors (AR); conditions: 30 μM; isolated perfused rat hearts and isolated cardiomyocytes
[4] = system: rat vascular smooth muscle cells; conditions: rat vascular smooth muscle cells in culture
[5] = system: Na+-K+-2Cl- cotransporter (NKCC); conditions: acute cell exposure; rat L6 skeletal muscle cells

CSCC[C@H](NC(=O)[C@H](Cc1ccc(OS(=O)(=O)O)cc1)NC(=O)[C@@H](N)CC(=O)O)C(=O)NCC(=O)N[C@@H](Cc1c[nH]c2ccccc12)C(=O)N[C@@H](CCSC)C(=O)N[C@@H](CC(=O)O)C(=O)N[C@@H](Cc1ccccc1)C(N)=O [CCK-8, cholecystokinin octapeptide]
stimulation of ouabain-sensitive 86Rb+ uptake (Na+-K+ pump): approximately 60%

C[N+](C)(C)CCOC(N)=O [Carbachol]
stimulation of ouabain-sensitive 86Rb+ uptake (Na+-K+ pump): approximately 60%

NCCc1c[nH]c2ccc(O)cc12 [Serotonin, 5-hydroxytryptamine]
uptake of 86Rb+ [1]: increases

CCCC(=O)Nc1ncnc2c1ncn2[C@@H]1O[C@@H]2COP(=O)(O)O[C@H]2[C@H]1OC(=O)CCC [dibutyryl cAMP]
increase of Na+-K+ pump activity (as measured by ouabain-sensitive 86Rb+ uptake) (Na+-K+ pump): approximately 40%

C[C@@H]1O[C@@H](O[C@H]2C[C@@H](O)[C@]3(CO)[C@H]4[C@H](O)C[C@]5(C)[C@@H](C6=CC(=O)OC6)CC[C@]5(O)[C@@H]4CC[C@]3(O)C2)[C@H](O)[C@H](O)[C@H]1O [ouabain]
effect on bombesin stimulation of 86Rb+ uptake [2]: virtually abolished

CNC[C@H](O)c1cccc(O)c1 [phenylephrine]
86Rb+ influx into myocardial cells [3]: increased

Cn1c(=O)c2[nH]cnc2n(C)c1=O [theophylline]
increase of Na+-K+ pump activity (as measured by ouabain-sensitive 86Rb+ uptake) (Na+-K+ pump): approximately 40%

Platelet-derived growth factor
influx of 86Rb [4]: acute increase

Secretin
increase of Na+-K+ pump activity (as measured by ouabain-sensitive 86Rb+ uptake) (Na+-K+ pump): approximately 40%

insulin
stimulation of NKCC-mediated 86Rb+ influx [5]: ~1.6 fold
